Test results taken from patent US20230143604A1, “QW DOSING OF GIP RECEPTOR AGONIST PEPTIDE COMPOUNDS AND USES THEREOF” (TAKEDA PHARMACEUTICAL COMPANY LIMITED, priority 2020, published 2023).
Starred links: 1 amine or outer side, 2 acyl side, 3 side chain; linkers in the order of their positions; H or OH if unused. Non-standard residues stand in square brackets, D forms with d. Residues, ends and D or L forms follow the SMILES beside them. Groups on a side chain read outwards from the residue. *: point of attachment. C18 diacid = O=C(O)CCCCCCCCCCCCCCCCC(=O)*; γGlu = O=C(O)[C@H](CCC(=O)[*:2])N[*:1]; NMeY = CN[C@@H](Cc1ccc(O)cc1)C(=O)O; AEEA = NCCOCCOCC(=O)O; Aib = CC(C)(N)C(=O)O

Assay: physchem
Settings: pH 7.4, aqueous buffer
Outline: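 Solubility at pH 7.4 determined by stepwise addition of 200 mM phosphate buffer in 100 μL increments to 3 mg peptide, mixing briefly each time, until no insoluble material remained, then measured by liquid chromatography.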

Row | SMILES | solubility
1 | CC[C@H](C)[C@H](NC(=O)[C@H](CO)NC(=O)[C@H](Cc1ccc(O)cc1)NC(=O)[C@H](CC(=O)O)NC(=O)[C@H](CO)NC(=O)[C@@H](NC(=O)[C@H](Cc1ccccc1)NC(=O)[C@@H](NC(=O)CNC(=O)[C@H](CCC(=O)O)NC(=O)C(C)(C)NC(=O)[C@H](Cc1ccc(O)cc1)NC)[C@@H](C)O)[C@@H](C)CC)C(=O)N[C@@H](C)C(=O)N[C@@H](CCCCNC(=O)CNC(=O)CNC(=O)CNC(=O)CNC(=O)CNC(=O)CCCCCCCCCCCCCCCCC(=O)O)C(=O)N[C@@H](CC(=O)O)C(=O)N[C@@H](CCCNC(=N)N)C(=O)NC(C)(C)C(=O)N[C@@H](C)C(=O)N[C@@H](CCC(N)=O)C(=O)NC(C)(C)C(=O)N[C@@H](CC(N)=O)C(=O)N[C@@H](Cc1ccccc1)C(=O)N[C@H](C(=O)N[C@@H](CC(N)=O)C(=O)N[C@@H](Cc1c[nH]c2ccccc12)C(=O)N[C@@H](CC(C)C)C(=O)N[C@@H](CC(C)C)C(=O)N[C@@H](C)C(=O)N[C@@H](CCC(N)=O)C(=O)N[C@@H](CCCNC(=N)N)C(=O)O)C(C)C [Compound 251] | ≥ 7000 µg/mL
2 | CC[C@H](C)[C@H](NC(=O)[C@H](CCCNC(=N)N)NC(=O)[C@H](CC(=O)O)NC(=O)[C@H](CCCCNC(=O)COCCOCCNC(=O)COCCOCCNC(=O)CC[C@H](NC(=O)CCCCCCCCCCCCCCCCC(=O)O)C(=O)O)NC(=O)[C@H](C)NC(=O)[C@@H](NC(=O)[C@H](CO)NC(=O)[C@H](Cc1ccc(O)cc1)NC(=O)[C@H](CC(=O)O)NC(=O)[C@H](CO)NC(=O)[C@@H](NC(=O)[C@H](Cc1ccccc1)NC(=O)[C@@H](NC(=O)CNC(=O)[C@H](CCC(=O)O)NC(=O)C(C)(C)NC(=O)[C@H](Cc1ccc(O)cc1)NC)[C@@H](C)O)[C@@H](C)CC)[C@@H](C)CC)C(=O)N[C@@H](C)C(=O)N[C@@H](CCC(N)=O)C(=O)NC(C)(C)C(=O)N[C@@H](CC(N)=O)C(=O)N[C@@H](Cc1ccccc1)C(=O)N[C@H](C(=O)N[C@@H](CC(N)=O)C(=O)N[C@@H](Cc1c[nH]c2ccccc12)C(=O)N[C@@H](CC(C)C)C(=O)N[C@@H](CC(C)C)C(=O)N[C@@H](C)C(=O)N[C@@H](CCC(N)=O)C(=O)N[C@@H](CCCNC(=N)N)C(N)=O)C(C)C [Compound 252] (H-[NMeY][Aib]EGTFISDYSIAK([AEEA-AEEA-γGlu-C18 diacid])DRIAQ[Aib]NFVNWLLAQR-NH2) | ≥ 7300 µg/mL
3 | CC[C@H](C)[C@H](NC(=O)[C@H](CO)NC(=O)[C@H](Cc1ccc(O)cc1)NC(=O)[C@H](CC(=O)O)NC(=O)[C@H](CO)NC(=O)[C@@H](NC(=O)[C@H](Cc1ccccc1)NC(=O)[C@@H](NC(=O)CNC(=O)[C@H](CCC(=O)O)NC(=O)C(C)(C)NC(=O)[C@H](Cc1ccc(O)cc1)NC)[C@@H](C)O)[C@@H](C)CC)C(=O)N[C@@H](C)C(=O)N[C@@H](CCCCNC(=O)COCCOCCNC(=O)COCCOCCNC(=O)CC[C@H](NC(=O)CCCCCCCCCCCCCCCCC(=O)O)C(=O)O)C(=O)N[C@@H](CC(=O)O)C(=O)N[C@@H](CCCNC(=N)N)C(=O)NC(C)(C)C(=O)N[C@@H](C)C(=O)N[C@@H](CCC(N)=O)C(=O)N[C@@H](CCC(N)=O)C(=O)N[C@@H](CC(N)=O)C(=O)N[C@@H](Cc1ccccc1)C(=O)N[C@H](C(=O)N[C@@H](CC(N)=O)C(=O)N[C@@H](Cc1c[nH]c2ccccc12)C(=O)N[C@@H](CC(C)C)C(=O)N[C@@H](CC(C)C)C(=O)N[C@@H](C)C(=O)N[C@@H](CCC(N)=O)C(=O)N[C@@H](CCCNC(=N)N)C(N)=O)C(C)C [Compound 253] (H-[NMeY][Aib]EGTFISDYSIAK([AEEA-AEEA-γGlu-C18 diacid])DR[Aib]AQQNFVNWLLAQR-NH2) | ≥ 7400 µg/mL
